This note sets out measurements from article PMC11899342, “Novel Triazeneindole Antibiotics: Synthesis and Hit-to-Lead Optimization” (International Journal of Molecular Sciences, 2025).

Series [1] can be described thus: Solubility in water by HPLC. The settings on record: water, kinetic from dmso stock. The series is classed as physicochemical. As to the method:
The solubility of the compounds in water was assessed using HPLC analysis. Two 1.0 mg portions of the test compounds were dissolved in 10 μL of dimethyl sulfoxide; 1.0 mL of acetonitrile was added to one sample (standard), and 1.0 mL of water was added to the second sample (tested sample). Both vials were mixed in a shaker for 5 min, then centrifuged at 10,000 rpm for 5 min. The supernatants were collected and analyzed using Agilent 1290 Infinity (Agilent Technologies, Santa Clara, CA, USA) with a YMC-Triart C18 50 × 2.0 mm, 1.9 μm column. The concentration of the test compound in water was determined by comparing the peak areas of the standard (concentration 1.0 mg/mL) and the tested sample.

Series [2] has as its system MRSA clinical isolates. As to the kind of experiment: MIC by broth microdilution against multidrug-resistant MRSA clinical isolates. The note with it: for MIC Range Against 8 MRSA Strains: 8 multidrug-resistant MRSA clinical isolates, tested 0.125-1 mg/L; for MIC: Staphylococcus aureus, MRSA, read-out: MIC against 8 MRSA strains. The format is cell-based, Staphylococcus aureus. As for the experimental part:
(§1) Clinical MRSA isolates with multidrug resistance were obtained from the collection of the Research Institute of Antimicrobial Chemotherapy, Smolensk State Medical Academy.
The MICs were determined using a broth microdilution method according to [42]. Briefly, serial dilutions of the tested compounds in 50 µL of Mueller Hinton broth (BD) were prepared in 96-well microplates. The antibiotics vancomycin and linezolid (Sigma-Aldrich, St. Louis, MO, USA) were used as a positive control. Bacterial suspensions of the tested MRSA strains were prepared in the Mueller Hinton broth (BD) with a concentration 1 × 10^6 CFU/mL, and then 50 µL aliquots were added to the prepared microplates. The final concentrations of the antibiotics in the wells were 1, 0.5, 0.25, and 0.125 mg/L, for the tested compounds, and 2 mg/L for vancomycin and linezolid. Negative control (lack of bacterial cells) and growth control (lack of compound) wells were included in all plates. The microplates were incubated at 37 °C for 18 h. The growth was assessed visually after incubation, and the MIC was assumed as the lowest compound concentration at which a noticeable growth of the microorganisms was inhibited (no visible growth). All experiments were conducted in triplicate.

Series [3] concerns MRSA clinical isolates. As to the kind of experiment: Antibiotic susceptibility profile of MRSA clinical isolates (EUCAST breakpoints). The series is classed as cell-based, Staphylococcus aureus.
From the text: as §1

Setting [4] is: read-out: Solubility in water, mass concentration.
[5] abbreviates: read-out: Solubility in water, molar concentration.

Values after ≈ are worked out from the molar mass of the structure shown. Where two headings read alike, the source gives them in different places.

On to `CCOC(=O)c1[nH]c2cc(F)ccc2c1/N=N/N1CCN(Cc2ccccc2)CC1` [BX-SI038, Ethyl (E)-3-((4-benzylpiperazin-1-yl)diazenyl)-6-fluoro-1H-indole-2-carboxylate], for which the solubility at 5 min in series [1] (setting [4]) is 0.383 µg/mL; in series [1] (setting [5]), 1 µM. Further, the “MIC Range Against 8 MRSA Strains” value against MRSA clinical isolates [2] is reported as greater than 1 mg/L.

Consider `CN[C@H](CC(C)C)C(=O)N[C@H]1C(=O)N[C@@H](CC(N)=O)C(=O)N[C@H]2C(=O)N[C@H]3C(=O)N[C@H](C(=O)N[C@H](C(=O)O)c4cc(O)cc(O)c4-c4cc3ccc4O)[C@H](O)c3ccc(c(Cl)c3)Oc3cc2cc(c3O[C@@H]2O[C@H](CO)[C@@H](O)[C@H](O)[C@H]2O[C@H]2C[C@](C)(N)[C@H](O)[C@H](C)O2)Oc2ccc(cc2Cl)[C@H]1O` [Vancomycin, vancomycin], for which the Drug sensibility profile result in the series with MRSA clinical isolates [3] (MRSA strain 1), with MRSA clinical isolates [3] (MRSA strain 2), in the series on MRSA clinical isolates [3] (MRSA strain 3), in the series with MRSA clinical isolates [3] (MRSA strain 4), in the series with MRSA clinical isolates [3] (MRSA strain 5) and in the series on MRSA clinical isolates [3] (MRSA strain 6) was “S” in each case. Besides, the Drug sensibility profile result with MRSA clinical isolates [3] (MRSA strain 7), in the series on MRSA clinical isolates [3] (MRSA strain 8), in the series with MRSA clinical isolates [3] (MRSA strain 9), in the series with MRSA clinical isolates [3] (MRSA strain 10), with MRSA clinical isolates [3] (MRSA strain 12) and with MRSA clinical isolates [3] (MRSA strain 13) was “S” throughout. In addition, the Drug sensibility profile result with MRSA clinical isolates [3] (MRSA strain 14), with MRSA clinical isolates [3] (MRSA strain 15), with MRSA clinical isolates [3] (MRSA strain 16), with MRSA clinical isolates [3] (MRSA strain 17), with MRSA clinical isolates [3] (MRSA strain 18) and in the series with MRSA clinical isolates [3] (MRSA strain 21) was “S” in each case. Moreover, the Drug sensibility profile result in the series with MRSA clinical isolates [3] (MRSA strain 23), in the series on MRSA clinical isolates [3] (MRSA strain 24), in the series with MRSA clinical isolates [3] (MRSA strain 25), in the series with MRSA clinical isolates [3] (MRSA strain 26), in the series with MRSA clinical isolates [3] (MRSA strain 27) and in the series with MRSA clinical isolates [3] (MRSA strain 28) was “S” each time. Besides, the Drug sensibility profile entry in the series with MRSA clinical isolates [3] (MRSA strain 29), with MRSA clinical isolates [3] (MRSA strain 30), in the series on MRSA clinical isolates [3] (MRSA strain 31), with MRSA clinical isolates [3] (MRSA strain 34), with MRSA clinical isolates [3] (MRSA strain 35) and with MRSA clinical isolates [3] (MRSA strain 36) was “S” each time. In addition, the Drug sensibility profile result in the series with MRSA clinical isolates [3] (MRSA strain 40), in the series with MRSA clinical isolates [3] (MRSA strain 41), in the series with MRSA clinical isolates [3] (MRSA strain 42), in the series on MRSA clinical isolates [3] (MRSA strain 43), in the series on MRSA clinical isolates [3] (MRSA strain 44) and in the series on MRSA clinical isolates [3] (MRSA strain 45) was “S” in each case. The Drug sensibility profile entry with MRSA clinical isolates [3] (MRSA strain 46), in the series on MRSA clinical isolates [3] (MRSA strain 48), in the series on MRSA clinical isolates [3] (MRSA strain 49), in the series on MRSA clinical isolates [3] (MRSA strain 50) and with MRSA clinical isolates [3] (MRSA strain 51) was “S” each time. Further, in the series with MRSA clinical isolates [2], the MIC worked out at 2 µg/mL (≈ 1.38 µM).

In the case of `CCOC(=O)c1c(/N=N/N(C)CCN(C)C)c2cccnc2n1C` [BX-SI027, Ethyl (E)-3-(3-(2-(dimethylamino)ethyl)-3-methyltriaz-1-en-1-yl)-1-methyl-1H-pyrrolo[2,3-b]pyridine-2-carboxylate], the figures for the solubility at 5 min in series [1] (setting [4]) and in series [1] (setting [5]) were 927 µg/mL and 2780 µM, respectively. Moreover, the “MIC Range Against 8 MRSA Strains” value against MRSA clinical isolates [2] is given as greater than 1 mg/L.

With `CCOC(=O)c1c(/N=N/N(C)Cc2ccccc2)c2cccnc2n1C` [BX-SI020, Ethyl (E)-3-(3-benzyl-3-methyltriaz-1-en-1-yl)-1-methyl-1H-pyrrolo[2,3-b]pyridine-2-carboxylate], the figures for the solubility at 5 min in series [1] (setting [4]) and in series [1] (setting [5]) were 7.53 µg/mL and 20 µM, respectively. In the series on MRSA clinical isolates [2], the “MIC Range Against 8 MRSA Strains” value is greater than 1 mg/L.

Take `CCOC(=O)c1[nH]c2cc(F)ccc2c1/N=N/N(C)Cc1ccccc1` [BX-SI037, Ethyl (E)-3-(3-benzyl-3-methyltriaz-1-en-1-yl)-6-fluoro-1H-indole-2-carboxylate]: the solubility at 5 min was 18.4 µg/mL in series [1] (setting [4]) and 50 µM in series [1] (setting [5]). In addition, the “MIC Range Against 8 MRSA Strains” value with MRSA clinical isolates [2] was 1 mg/L (≈ 2.82 µM).

Consider `CC(=O)NC[C@H]1CN(c2ccc(N3CCOCC3)c(F)c2)C(=O)O1` [Linezolid, linezolid], for which the Drug sensibility profile entry with MRSA clinical isolates [3] (MRSA strain 1), in the series on MRSA clinical isolates [3] (MRSA strain 2), in the series on MRSA clinical isolates [3] (MRSA strain 3), with MRSA clinical isolates [3] (MRSA strain 4), in the series with MRSA clinical isolates [3] (MRSA strain 5) and in the series with MRSA clinical isolates [3] (MRSA strain 6) was “S” throughout. Further, the Drug sensibility profile result in the series with MRSA clinical isolates [3] (MRSA strain 7), in the series on MRSA clinical isolates [3] (MRSA strain 8), in the series with MRSA clinical isolates [3] (MRSA strain 9), with MRSA clinical isolates [3] (MRSA strain 10), in the series on MRSA clinical isolates [3] (MRSA strain 12) and with MRSA clinical isolates [3] (MRSA strain 13) was “S” throughout. In addition, the Drug sensibility profile result in the series with MRSA clinical isolates [3] (MRSA strain 14), with MRSA clinical isolates [3] (MRSA strain 15), in the series with MRSA clinical isolates [3] (MRSA strain 16), in the series on MRSA clinical isolates [3] (MRSA strain 17), in the series with MRSA clinical isolates [3] (MRSA strain 18) and with MRSA clinical isolates [3] (MRSA strain 21) was “S” in each case. Further, the Drug sensibility profile entry with MRSA clinical isolates [3] (MRSA strain 23), in the series on MRSA clinical isolates [3] (MRSA strain 24), in the series with MRSA clinical isolates [3] (MRSA strain 25), in the series with MRSA clinical isolates [3] (MRSA strain 26), in the series with MRSA clinical isolates [3] (MRSA strain 27) and with MRSA clinical isolates [3] (MRSA strain 28) was “S” in each case. The Drug sensibility profile entry in the series on MRSA clinical isolates [3] (MRSA strain 29), in the series on MRSA clinical isolates [3] (MRSA strain 30), with MRSA clinical isolates [3] (MRSA strain 31), in the series on MRSA clinical isolates [3] (MRSA strain 34), in the series on MRSA clinical isolates [3] (MRSA strain 35) and with MRSA clinical isolates [3] (MRSA strain 36) was “S” throughout. Moreover, the Drug sensibility profile entry in the series on MRSA clinical isolates [3] (MRSA strain 40), in the series with MRSA clinical isolates [3] (MRSA strain 41), in the series on MRSA clinical isolates [3] (MRSA strain 42), in the series with MRSA clinical isolates [3] (MRSA strain 43), in the series on MRSA clinical isolates [3] (MRSA strain 44) and in the series on MRSA clinical isolates [3] (MRSA strain 45) was “S” throughout. For the same compound, the Drug sensibility profile result with MRSA clinical isolates [3] (MRSA strain 46), in the series with MRSA clinical isolates [3] (MRSA strain 48), with MRSA clinical isolates [3] (MRSA strain 49), with MRSA clinical isolates [3] (MRSA strain 50) and in the series on MRSA clinical isolates [3] (MRSA strain 51) was “S” each time. Besides, the minimum inhibitory concentration (MIC) in the series with MRSA clinical isolates [2] (Figure 6, MRSA strain 2) stood at 2 µg/mL (≈ 5.93 µM); in the series with MRSA clinical isolates [2] (Figure 6, MRSA strain 7), 2 µg/mL (≈ 5.93 µM); in the series on MRSA clinical isolates [2] (Figure 6, MRSA strain 8) it was 2 µg/mL (≈ 5.93 µM); in the series on MRSA clinical isolates [2] (Figure 6, MRSA strain 9), 2 µg/mL (≈ 5.93 µM); with MRSA clinical isolates [2] (Figure 6, MRSA strain 13), 2 µg/mL (≈ 5.93 µM); in the series with MRSA clinical isolates [2] (Figure 6, MRSA strain 21) it was 2 µg/mL (≈ 5.93 µM). Besides, the MIC in the series with MRSA clinical isolates [2] (Figure 6, MRSA strain 48) was 2 µg/mL (≈ 5.93 µM); in the series on MRSA clinical isolates [2] (Figure 6, MRSA strain 50), 2 µg/mL (≈ 5.93 µM).

On to `CCOC(=O)c1[nH]c2cc(F)ccc2c1/N=N/N(CC)CC` [BX-SI036, Ethyl (E)-3-(3,3-diethyltriaz-1-en-1-yl)-6-fluoro-1H-indole-2-carboxylate], for which the solubility at 5 min in series [1] (setting [4]) amounted to 10 µg/mL; in series [1] (setting [5]), 30 µM. The “MIC Range Against 8 MRSA Strains” value with MRSA clinical isolates [2] is listed as greater than 1 mg/L.

For the compound `CCOC(=O)c1c(/N=N/N2CCN(Cc3ccccc3)CC2)c2cccnc2n1C` [BX-SI021, Ethyl (E)-3-((4-benzylpiperazin-1-yl)diazenyl)-1-methyl-1H-pyrrolo[2,3-b]pyridine-2-carboxylate], the solubility at 5 min in series [1] (setting [4]) turned out to be 12.5 µg/mL; in series [1] (setting [5]), 10 µM. For the same compound, the “MIC Range Against 8 MRSA Strains” value against MRSA clinical isolates [2] is on record as greater than 1 mg/L.

Turning to `CCOC(=O)c1c(/N=N/N(CC)CC)c2cccnc2n1C` [BX-SI019, Ethyl (E)-3-(3,3-diethyltriaz-1-en-1-yl)-1-methyl-1H-pyrrolo[2,3-b]pyridine-2-carboxylate], the solubility at 5 min in series [1] (setting [4]) stood at 88.2 µg/mL; in series [1] (setting [5]), 290 µM. Further, the “MIC Range Against 8 MRSA Strains” value with MRSA clinical isolates [2] was greater than 1 mg/L.
